Measured values: patent US20170190671A1, “BIS(ARYL)CATECHOL DERIVATIVES AS HERBICIDES” (E I DU PONT DE NEMOURS AND COMPANY, priority 2014, published 2017)

Tests used:
Assay in all cases: Test C preemergence
Type in all cases: in vivo
[1] = test system: Italian ryegrass (Lolium multiflorum); details: Lolium multiflorum, pre-emergence, 336 h, scale 0 to 100, read-out: Plant response rating, Ryegrass, Italian
Summary of the method: (§1)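 Steps: plant seeds in loam-sand soil and treat preemergence, or grow plants in peat-based medium to 2-18 cm and spray; compound formulated in non-phytotoxic solvent/surfactant; hold in greenhouse 13-15 days; score visually versus controls from 0 (no effect) to 100 (complete control).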

[2] = test system: barnyardgrass (Echinochloa crus-galli); details: Echinochloa crus-galli, pre-emergence, read-out: Plant response rating, Barnyardgrass
Summary of the method: as §1

[3] = test system: blackgrass (Alopecurus myosuroides); details: Alopecurus myosuroides, pre-emergence, 336 h, scale 0 to 100, read-out: Plant response rating, Blackgrass
Summary of the method: as §1

corn (Zea mays) = details: Zea mays, pre-emergence, 336 h, scale 0 to 100
Summary of the method: as §1

[4] = test system: galium (catchweed bedstraw, Galium aparine); details: Galium, pre-emergence, 336 h, scale 0 to 100, read-out: Plant response rating, Galium
Summary of the method: as §1

[5] = test system: giant foxtail (Setaria faberii); details: Setaria faberi, pre-emergence, 336 h, scale 0 to 100, read-out: Plant response rating, Foxtail, Giant
Summary of the method: as §1

[6] = test system: lambsquarters (Chenopodium album); details: Chenopodium album, pre-emergence, 336 h, scale 0 to 100, read-out: Plant response rating, Lambsquarters
Summary of the method: as §1

[7] = test system: large (Lg) crabgrass (Digitaria sanguinalis); details: Digitaria sanguinalis, pre-emergence, 336 h, scale 0 to 100, read-out: Plant response rating, Crabgrass, Large
Summary of the method: as §1

[8] = test system: oilseed rape (Brassica napus); details: Brassica napus, pre-emergence, scale 0 to 100, read-out: Plant response rating, Oilseed Rape
Summary of the method: as §1

[9] = test system: ragweed (common ragweed, Ambrosia elatior); details: Ambrosia artemisiifolia, pre-emergence, 336 h, scale 0 to 100, read-out: Plant response rating, Ragweed
Summary of the method: as §1

soybean (Glycine max) = details: Glycine max, pre-emergence, scale 0 to 100, read-out: Plant response rating, Soybean
Summary of the method: as §1

[10] = test system: velvetleaf (Abutilon theophrasti); details: Abutilon theophrasti, pre-emergence, scale 0 to 100, read-out: Plant response rating, Velvetleaf
Summary of the method: as §1

[11] = test system: waterhemp (common waterhemp, Amaranthus rudis); details: Amaranthus tuberculatus, pre-emergence, scale 0 to 100, read-out: Plant response rating, Waterhemp
Summary of the method: as §1

[12] = test system: winter wheat (Triticum aestivum); details: Triticum aestivum, pre-emergence, 336 h, scale 0 to 100, read-out: Plant response rating, Wheat
Summary of the method: as §1

[13] = test system: yellow nutsedge (Cyperus esculentus); details: Cyperus, pre-emergence, 336 h, scale 0 to 100, read-out: Plant response rating, Nutsedge, Yellow
Summary of the method: as §1

**Q.** Which pest or weed control at 31 g/ha ([1]; 31 g ai/ha, preemergence) does the source give for `Fc1cnc(Oc2c(F)ccc(F)c2Oc2ncc(F)cn2)nc1` [Compound 29, 2,2′-[(3,6-difluoro-1,2-phenylene)bis(oxy)]bis[5-fluoropyrimidine]] here?
**A.** 15%

**Q.** What about the pest or weed control at 62 g/ha ([1]; 62 g ai/ha, preemergence) of the same compound?
**A.** 50%

**Q.** And the pest or weed control at 125 g/ha ([1]; 125 g ai/ha, preemergence)?
**A.** 60%

**Q.** What about the pest or weed control at 16 g/ha ([1]; Preemergence, 16 g ai/ha) of the same compound?
**A.** 30%

**Q.** What about the pest or weed control at 31 g/ha ([2]; 31 g ai/ha, preemergence, scale 0 to 100) of the same compound?
**A.** 75%

**Q.** What about the pest or weed control at 62 g/ha ([2]; 62 g ai/ha, preemergence, scale 0 to 100) of the same compound?
**A.** 98%

**Q.** What about the pest or weed control at 125 g/ha ([2]; 125 g ai/ha, preemergence, scale 0 to 100) of the same compound?
**A.** 100%

**Q.** What about the pest or weed control at 16 g/ha ([2]; Preemergence, 16 g ai/ha, scale 0 to 100 (0 no effect, 100 complete control)) of the same compound?
**A.** 25%

**Q.** And the pest or weed control at 31 g/ha ([3]; 31 g ai/ha, preemergence)?
**A.** 90%

**Q.** What about the pest or weed control at 62 g/ha ([3]; 62 g ai/ha, preemergence) of the same compound?
**A.** 90%

**Q.** And the pest or weed control at 125 g/ha ([3]; 125 g ai/ha, preemergence)?
**A.** 90%

**Q.** And the pest or weed control at 16 g/ha ([3]; Preemergence, 16 g ai/ha)?
**A.** 60%

**Q.** What about the Corn plant response rating (crop injury, 0 = no effect, 100 = complete kill) at 31 g/ha (corn (Zea mays); 31 g ai/ha, preemergence) of the same compound?
**A.** 15%

**Q.** What about the Corn plant response rating (crop injury, 0 = no effect, 100 = complete kill) at 62 g/ha (corn (Zea mays); 62 g ai/ha, preemergence) of the same compound?
**A.** 25%

**Q.** What about the Corn plant response rating (crop injury, 0 = no effect, 100 = complete kill) at 125 g/ha (corn (Zea mays); 125 g ai/ha, preemergence) of the same compound?
**A.** 65%

**Q.** What about the Corn plant response rating (crop injury, 0 = no effect, 100 = complete kill) at 16 g/ha (corn (Zea mays); Preemergence, 16 g ai/ha) of the same compound?
**A.** 0%

**Q.** What about the pest or weed control at 31 g/ha ([4]; 31 g ai/ha, preemergence) of the same compound?
**A.** 100%

**Q.** And the pest or weed control at 62 g/ha ([4]; 62 g ai/ha, preemergence)?
**A.** 100%

**Q.** What about the pest or weed control at 125 g/ha ([4]; 125 g ai/ha, preemergence) of the same compound?
**A.** 100%

**Q.** And the pest or weed control at 16 g/ha ([4]; Preemergence, 16 g ai/ha)?
**A.** 95%

**Q.** What about the pest or weed control at 31 g/ha ([5]; 31 g ai/ha, preemergence) of the same compound?
**A.** 80%

**Q.** And the pest or weed control at 62 g/ha ([5]; 62 g ai/ha, preemergence)?
**A.** 85%

**Q.** And the pest or weed control at 125 g/ha ([5]; 125 g ai/ha, preemergence)?
**A.** 98%

**Q.** And the pest or weed control at 16 g/ha ([5]; Preemergence, 16 g ai/ha)?
**A.** 75%

**Q.** And the pest or weed control at 31 g/ha ([6]; 31 g ai/ha, preemergence)?
**A.** 85%

**Q.** And the pest or weed control at 62 g/ha ([6]; 62 g ai/ha, preemergence)?
**A.** 85%

**Q.** What about the pest or weed control at 125 g/ha ([6]; 125 g ai/ha, preemergence) of the same compound?
**A.** 90%

**Q.** What about the pest or weed control at 16 g/ha ([6]; Preemergence, 16 g ai/ha) of the same compound?
**A.** 80%

**Q.** And the pest or weed control at 31 g/ha ([7]; 31 g ai/ha, preemergence)?
**A.** 95%

**Q.** What about the pest or weed control at 62 g/ha ([7]; 62 g ai/ha, preemergence) of the same compound?
**A.** 95%

**Q.** What about the pest or weed control at 125 g/ha ([7]; 125 g ai/ha, preemergence) of the same compound?
**A.** 98%

**Q.** And the pest or weed control at 16 g/ha ([7]; Preemergence, 16 g ai/ha)?
**A.** 95%

**Q.** What about the plant injury at 31 g/ha ([8]; 31 g ai/ha, preemergence) of the same compound?
**A.** 98%

**Q.** And the plant injury at 62 g/ha ([8]; 62 g ai/ha, preemergence)?
**A.** 95%

**Q.** What about the plant injury at 125 g/ha ([8]; 125 g ai/ha, preemergence) of the same compound?
**A.** 95%

**Q.** What about the plant injury at 16 g/ha ([8]; Preemergence, 16 g ai/ha) of the same compound?
**A.** 95%

**Q.** What about the pest or weed control at 31 g/ha ([9]; 31 g ai/ha, preemergence) of the same compound?
**A.** 85%

**Q.** What about the pest or weed control at 62 g/ha ([9]; 62 g ai/ha, preemergence) of the same compound?
**A.** 85%

**Q.** What about the pest or weed control at 125 g/ha ([9]; 125 g ai/ha, preemergence) of the same compound?
**A.** 95%

**Q.** What about the pest or weed control at 16 g/ha ([9]; Preemergence, 16 g ai/ha) of the same compound?
**A.** 90%

**Q.** What about the plant injury at 31 g/ha (soybean (Glycine max); 31 g ai/ha, preemergence) of the same compound?
**A.** 85%

**Q.** What about the plant injury at 62 g/ha (soybean (Glycine max); 62 g ai/ha, preemergence) of the same compound?
**A.** 90%

**Q.** And the plant injury at 125 g/ha (soybean (Glycine max); 125 g ai/ha, preemergence)?
**A.** 90%

**Q.** And the plant injury at 16 g/ha (soybean (Glycine max); Preemergence, 16 g ai/ha)?
**A.** 70%

**Q.** What about the pest or weed control at 31 g/ha ([10]; 31 g ai/ha, preemergence) of the same compound?
**A.** 98%

**Q.** What about the pest or weed control at 62 g/ha ([10]; 62 g ai/ha, preemergence) of the same compound?
**A.** 90%

**Q.** What about the pest or weed control at 125 g/ha ([10]; 125 g ai/ha, preemergence) of the same compound?
**A.** 98%

**Q.** And the pest or weed control at 16 g/ha ([10]; Preemergence, 16 g ai/ha)?
**A.** 75%

**Q.** What about the pest or weed control at 31 g/ha ([11]; 31 g ai/ha, preemergence) of the same compound?
**A.** 100%

**Q.** And the pest or weed control at 62 g/ha ([11]; 62 g ai/ha, preemergence)?
**A.** 100%

**Q.** What about the pest or weed control at 125 g/ha ([11]; 125 g ai/ha, preemergence) of the same compound?
**A.** 100%

**Q.** What about the pest or weed control at 16 g/ha ([11]; Preemergence, 16 g ai/ha) of the same compound?
**A.** 100%

**Q.** What about the plant injury at 31 g/ha ([12]; 31 g ai/ha, preemergence) of the same compound?
**A.** 5%

**Q.** And the plant injury at 62 g/ha ([12]; 62 g ai/ha, preemergence)?
**A.** 35%

**Q.** What about the plant injury at 125 g/ha ([12]; 125 g ai/ha, preemergence) of the same compound?
**A.** 60%

**Q.** And the plant injury at 16 g/ha ([12]; Preemergence, 16 g ai/ha)?
**A.** 0%

**Q.** And the pest or weed control at 31 g/ha ([13]; 31 g ai/ha, preemergence)?
**A.** 0%

**Q.** What about the pest or weed control at 62 g/ha ([13]; 62 g ai/ha, preemergence) of the same compound?
**A.** 0%

**Q.** And the pest or weed control at 125 g/ha ([13]; 125 g ai/ha, preemergence)?
**A.** 40%

**Q.** What about the pest or weed control at 16 g/ha ([13]; Preemergence, 16 g ai/ha) of the same compound?
**A.** 0%
